According to the NIST ThermoML archive (doi:10.1021/je200150r):
± gives the expanded uncertainty stated by the source.

Test: xn = mol fraction of the nth substance listed
Settings: 101 kPa, Liquid; for viscosity: Capillary tube (Ostwald / Ubbelohde) method; for mass density: Pycnometric method

OCc1ccccc1 [benzenemethanol] + CCC(C)=O
Settings | mass density, 303.15 K [kg/m3] | mass density, 308.15 K [kg/m3] | mass density, 313.15 K [kg/m3] | mass density, 318.15 K [kg/m3] | mass density, 323.15 K [kg/m3] | viscosity, 303.15 K [mPa·s] | viscosity, 308.15 K [mPa·s] | viscosity, 313.15 K [mPa·s] | viscosity, 318.15 K [mPa·s] | viscosity, 323.15 K [mPa·s]
x1 = 0.1003 | 825.4 ± 0.9 | 820.4 ± 0.9 | 815.4 ± 0.9 | 810.4 ± 0.9 | 805.3 ± 0.9 | 0.446 ± 0.006 | 0.424 ± 0.006 | 0.403 ± 0.005 | 0.385 ± 0.005 | 0.368 ± 0.005
x1 = 0.2 | 854.7 ± 0.9 | 849.9 ± 0.9 | 845.1 ± 0.9 | 840.3 ± 0.9 | 835.5 ± 0.9 | 0.554 ± 0.007 | 0.524 ± 0.007 | 0.497 ± 0.006 | 0.472 ± 0.006 | 0.451 ± 0.006
x1 = 0.301 | 882.5 ± 0.9 | 877.8 ± 0.9 | 873 ± 0.9 | 868.3 ± 0.9 | 863.6 ± 0.9 | 0.697 ± 0.009 | 0.655 ± 0.008 | 0.616 ± 0.008 | 0.582 ± 0.007 | 0.551 ± 0.007
x1 = 0.3991 | 907.5 ± 0.9 | 903 ± 0.9 | 898.4 ± 0.9 | 893.9 ± 0.9 | 889.3 ± 0.9 | 0.876 ± 0.011 | 0.818 ± 0.01 | 0.765 ± 0.01 | 0.718 ± 0.009 | 0.676 ± 0.009
x1 = 0.5001 | 932.6 ± 0.9 | 928.2 ± 0.9 | 923.8 ± 0.9 | 919.4 ± 0.9 | 915 ± 0.9 | 1.131 ± 0.014 | 1.046 ± 0.013 | 0.97 ± 0.012 | 0.904 ± 0.011 | 0.845 ± 0.011
x1 = 0.6 | 956.3 ± 0.9 | 952 ± 0.9 | 947.8 ± 0.9 | 943.6 ± 0.9 | 939.3 ± 0.9 | 1.476 ± 0.019 | 1.351 ± 0.017 | 1.242 ± 0.016 | 1.146 ± 0.014 | 1.063 ± 0.013
x1 = 0.7008 | 978.2 ± 0.9 | 974.1 ± 0.9 | 969.9 ± 0.9 | 965.8 ± 0.9 | 961.7 ± 0.9 | 1.947 ± 0.025 | 1.761 ± 0.022 | 1.599 ± 0.02 | 1.461 ± 0.018 | 1.341 ± 0.017
x1 = 0.8001 | 998.5 ± 0.9 | 994.6 ± 0.9 | 990.5 ± 0.9 | 985.6 ± 0.9 | 982.7 ± 0.9 | 2.586 ± 0.033 | 2.307 ± 0.029 | 2.063 ± 0.026 | 1.866 ± 0.023 | 1.694 ± 0.021
x1 = 0.8997 | 1018.1 ± 0.9 | 1014.3 ± 0.9 | 1010.4 ± 0.9 | 1006.5 ± 0.9 | 1002.7 ± 0.9 | 3.452 ± 0.044 | 3.033 ± 0.038 | 2.682 ± 0.034 | 2.391 ± 0.03 | 2.144 ± 0.027
x1 = 1 | 1037.6 ± 0.9 | 1033.8 ± 0.9 | 1030.1 ± 0.9 | 1026.3 ± 0.9 | 1022.5 ± 0.9 | 4.689 ± 0.059 | 4.058 ± 0.051 | 3.531 ± 0.044 | 3.103 ± 0.039 | 2.747 ± 0.035
